Data: the METLIN SMRT retention time set (Domingo-Almenara et al. 2019)

Assay: gradient 5% acetonitrile 3 min, to 50% in 2 min, to 85% in 15 min, held 3 min, 100 µL/min
Conditions: column: Zorbax Extend-C18 2.1 x 50 mm; eluents: water / acetonitrile, 0.1% formic acid
Method in brief: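 Retention time was recorded from adduct peaks, which were picked computationally and each inspected manually. Pure standards ran in mixtures of ~100 molecules on HPLC coupled to a quadrupole time-of-flight mass spectrometer, in positive and negative ionization mode, through a Zorbax Extend-C18 column (2.1 × 50 mm, 1.8 μm) at 100 μL/min. Eluents were water and acetonitrile, each with 0.1% formic acid.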

| SMILES | RP-LC retention time |
| --- | --- |
| COCCNC(=O)Cn1nc(C)c2c(C)n(-c3ccccc3)nc2c1=O | 649 s |
| CN1c2cc(Cl)ccc2C(=O)NC12CCN(C(=O)Nc1ccccc1)CC2 | 795 s |
| Cc1oc2c(c1C(=O)N(C)C)CN(S(=O)(=O)Cc1ccccc1)CC2 | 740 s |
| Cn1cnc2c(C(=O)Nc3ccccc3)nn(-c3ccccc3)c2c1=O | 835 s |
| Cc1cc(NC(=O)C2Oc3ccccc3NC2=O)ccc1Br (stereo not drawn) | 865 s |
| COc1cccc(NC(=O)CN2C(=O)CC(c3cccs3)=Nc3ccccc32)c1 | 898 s |
| CCc1nnc(-c2nnc(N(CC)CC)c3ccccc23)o1 | 859 s |
| Cc1ccc(CNC(=O)CN2C(=O)CSc3cccn3-c3ccccc32)cc1 | 1110 s |
| Cc1cc2c(c(=O)n(-c3ccc(F)cc3)c(=O)n2CC(=O)Nc2ccc(C(C)C)cc2)n1C | 921 s |
| O=S(=O)(c1cccc2nsnc12)N1CC[C@@H]2COCCN(Cc3cccnc3)[C@@H]2C1 | 615 s |
| O=C(NCc1cccnc1-c1ccccc1)c1cccc(Br)c1 | 692 s |
| O=S(=O)(c1ccc2nncn2c1)N(Cc1cccc(F)c1)c1ccc(F)cc1 | 857 s |
| O=C(c1ccc(F)cc1)N1CCC(C(=O)N2CCc3ccccc32)CC1 | 822 s |
| CC1=NS(=O)(=O)N(Cc2ccccc2)C=C1C(=O)OCc1ccc(C(F)(F)F)cc1 | 1190 s |
| COc1ccc2cc(OCC3(C(=O)O)CN(C(=O)c4ccc(F)cc4)C3)ccc2c1 | 969 s |
| COc1cccc(Nc2nc3ccncc3n(C(C)C)c2=O)c1 | 680 s |
| Cc1cc(C)cc(NS(=O)(=O)c2c(C)sc(C)c2-c2cc(C)[nH]n2)c1 | 1100 s |
| O=c1ccc(S(=O)(=O)N2CCOCC2)cn1Cc1cccc(Cl)c1 | 809 s |
| Oc1ccc2c3c1O[C@H]1c4[nH]c5ccccc5c4C[C@@]4(O)C(C2)N(CC2CC2)CC[C@]314 | 717 s |
| Cn1ncc2c3ccccc3n(CCCC(=O)NCCc3ccccc3)c2c1=O | 845 s |
| Cc1cccc(CNC(=O)C2(C)Cn3cnc(C(=O)NCc4ccccc4)c3C(=O)N2C2CC2)c1 (stereo not drawn) | 766 s |
| COC(=O)c1[nH]c2c(c1C)C(=O)CC(c1ccccc1)C2 (stereo not drawn) | 860 s |
| O=C1c2ccccc2C(=O)c2[nH]cnc21 | 661 s |
| CCS(=O)(=O)c1nc2ccc(NS(=O)(=O)c3ccc4c(c3)CCCC4)cc2s1 | 1010 s |
| C=CCNc1nc(-c2ccc([N+](=O)[O-])cc2)nc2ccccc12 | 786 s |
| Cc1ccccc1-c1nnc(CSc2nnc(NC(=O)c3ccc(C(F)(F)F)cc3)s2)o1 | 1050 s |

| SMILES | RP-LC retention time |
| --- | --- |
| CCOC(=O)c1ccc2[nH]c(-c3ccc(S(=O)(=O)F)cc3)cc(=O)c2c1 | 858 s |
| CCc1noc(C2(NC(=O)c3ccc(C#N)cc3)CCCCC2)n1 | 896 s |
| CCc1nn2c(CNC(=O)Cc3ccc(OC)cc3Cl)c(C)nc2s1 | 670 s |
| N#Cc1cccc(C(=O)NC2CCN(c3cc(-c4ccc(Cl)cc4)[nH]n3)C2)c1 (stereo not drawn) | 728 s |
| CCn1c(C)c(-c2nc(C3CC3)no2)c(S(=O)(=O)N2CCC(C)CC2)c1C | 904 s |
| O=C(Nc1cc(F)c(F)c(F)c1)N1CCc2nc[nH]c2C1 | 614 s |
| Cn1cc(C(=O)NCc2cccs2)c2cccnc21 | 691 s |
| CCc1ccccc1NS(=O)(=O)c1cc(-c2c(CC)noc2NC(C)=O)ccc1C | 855 s |
| COCCNCc1ccc(-c2ccc(Br)cc2)o1 | 674 s |
| CSc1nc2c(c(=O)n1-c1ccc([N+](=O)[O-])cc1)SCC2 | 816 s |
| CCOC(=O)c1noc2nc(C)nc(N3CCc4ccccc4C3)c12 | 1120 s |
| Cc1ccc2c(NC(=O)C(c3ccccc3)c3ccccc3)noc2n1 | 785 s |
| CN(CCc1noc(-c2ccc(C(=O)N(C)Cc3ccco3)cc2)n1)C(=O)c1ccccc1 | 817 s |
| CCOC(=O)c1c(C)[nH]c(C(=O)N2CCC(CC(=O)NC(C)C)CC2)c1C | 683 s |
| O=C1[C@H]2CN(Cc3ccccc3OC(F)(F)F)C[C@H]2C(=O)N1Cc1ccc2c(c1)OCO2 | 1050 s |
| CCCC(=O)NC(C)c1nc(-c2ccccc2)no1 (stereo not drawn) | 782 s |
| CSc1ccc(CNC(=O)c2cc3c(=O)n(Cc4ccccc4)ccc3nc2C)cc1 | 870 s |
| COc1cccc(NC(=O)N2CCC3(C2)C(=O)N(C)c2ccc(OC)cc23)c1 (stereo not drawn) | 746 s |
| Cc1cc(OCCN2CC2)c2ccccc2n1 | 664 s |
| Cc1csc(-c2cc(S(=O)(=O)Nc3ccc(Cl)cc3)c(C)s2)n1 | 1060 s |
| COc1ccc(S(=O)(=O)N2CCc3nn(CC(C)C)c(=O)n3CC2)cc1OC | 745 s |
| Cc1ccc2[nH]c(C(=O)NCC3CCCO3)cc2c1 (stereo not drawn) | 776 s |
| CC(=O)Nc1nsc(N2CCC(C(=O)NCc3cccs3)CC2)n1 | 610 s |
| O=C(Nc1cnc(N2CCOCC2)nc1)c1ccc(F)c(Cl)c1 | 820 s |
| CCOC(=O)c1cc(C)nc2c1c(=O)n(Cc1ccccc1)c(=O)n2C | 879 s |

Results, then the molecule that gave them:

| RP-LC retention time | SMILES |
| --- | --- |
| 895 s | COc1ccccc1N1CCN(c2cc(SCC(=O)Nc3cccc(C#N)c3)ncn2)CC1 |
| 675 s | Cc1ccc(S(=O)(=O)NCCn2c(C)cnc2C2CCC2)c(C)c1 |
| 655 s | O=C(Cn1nc2n(c1=O)CCCCC2)Nc1ccc2c(c1)OCO2 |
| 867 s | Cc1cccc(N2CCN(C(=O)C3CCc4sc(C(=O)N(C)C)cc4C3)CC2)c1 (stereo not drawn) |
| 700 s | O=C(c1nnc(-c2ccc(S(=O)(=O)N3CCCCC3)cc2)o1)N1CCN(C2CCCCC2)CC1 |
| 888 s | O=C(NCc1ccc(F)cc1)c1nnc(-c2ccc(S(=O)(=O)N3CCCC3)cc2)o1 |
| 614 s | COc1ccc(C)cc1NC(=O)C(=O)NCCN1CCN(c2ccccc2F)CC1 |
| 754 s | Cc1nc(-c2ccccn2)cc2nn(CC(=O)N3CCOCC3)c(=O)n12 |
| 635 s | O=C(Nc1ccc2c(c1)OCCO2)N1CCN(Cc2nc3cccnc3n2-c2ccccc2)CC1 |
| 801 s | Cc1nnc(-c2ccc3ccn(CC(=O)Nc4ccc(F)cc4F)c3c2)o1 |
| 660 s | Cc1ccc(-c2nnc(N3CCC(C(=O)NCCCN4CCCC4=O)CC3)o2)cc1 |
| 1070 s | CCN(CC)C(=O)c1cnc2snc(C)c2c1N1CCC(C(=O)Nc2cc(C)c(Cl)cc2OC)CC1 |
| 782 s | Cn1c(C(=O)NCCN2CCCCCC2)cc2c(-c3cccs3)nn(-c3ccccc3)c21 |
| 735 s | COc1ccccc1NC(=O)N1CCC(CNS(=O)(=O)c2cc(C)ccc2C)CC1 |
| 716 s | Cc1ccc(F)cc1NS(=O)(=O)c1cc2n(c1)CCCN(C)C2=O |
| 704 s | CCCNC(=O)C1CCN(Cc2cc3ccccc3n2Cc2ccccc2)CC1 |
| 1000 s | CCCn1c(=O)sc2cc(S(=O)(=O)N3CCC(C(=O)Nc4ccccc4OC)CC3)ccc21 |
| 754 s | COc1ccc(CNC(=O)C2CCN(c3nccn4nc(-c5cccs5)cc34)CC2)cc1 |
| 899 s | CC(C)c1ccc(NC(=O)C2CCCN(c3ncnc4c3nc3n4CCCCC3)C2)cc1 (stereo not drawn) |

| RP-LC retention time | SMILES |
| --- | --- |
| 656 s | O=C(Nc1ccc2c(c1)OCCO2)C1CCCN(C(=O)c2cc(-c3ccccn3)n[nH]2)C1 (stereo not drawn) |
| 784 s | COc1ccccc1C(=O)N1CCCC1COc1ccc(C(=O)N2CCCC2)cc1 (stereo not drawn) |
| 924 s | O=C(N1CCN(c2cc(-c3ccc(Cl)cc3)[nH]n2)CC1)C1(c2ccccc2)CC1 |
| 921 s | O=C(NC1CCCCC1)c1ccc2c(c1)N(Cc1ccccc1)C(=O)CO2 |
| 799 s | Cc1cccc(N2CCN(c3cc(C(=O)O)c4cc(NC(=O)C5CCCC5)ccc4n3)CC2)c1C |
| 704 s | COc1ccc(NC(=O)C2CCN(c3nnc4ccccn34)CC2)cc1C(F)(F)F |
| 729 s | CCN(CC)c1nc2cc(C(=O)N3CCN(c4ccccn4)CC3)ccc2c(=O)n1Cc1ccccc1 |
| 1050 s | CCOc1ccc(N2CC(c3nc(-c4cccc(C)c4)no3)CC2=O)cc1 (stereo not drawn) |
| 682 s | Cc1ccc(-c2cc3c4nnc(CCC(=O)N5CCN(C6CCCCC6)CC5)n4ccn3n2)cc1C |
| 995 s | N#Cc1cccc(NC(=O)C2CCN(S(=O)(=O)c3cc(C(=O)N4CCCC4)cs3)CC2)c1 |
| 1130 s | Cc1ccc(-c2nc(C)cc(OCC(=O)Nc3c(C)cc(C)cc3C)n2)cc1 |
| 726 s | CCn1cnc(S(=O)(=O)N2CCCC(C(=O)NCc3ccccc3C)C2)c1 (stereo not drawn) |
| 599 s | COc1ccc(-c2csc(CN3CCN(C(=O)C4CC4)CC3)n2)cc1 |
| 723 s | COc1ccc(C)cc1NC(=O)Cn1cnc2nc(N3CCC(C(=O)NC4CC4)CC3)sc2c1=O |
| 728 s | Cn1nnc2cc(C(=O)N3CCC(C(=O)NC4CCCc5ccccc54)CC3)ccc21 (stereo not drawn) |
| 717 s | CCNC(=O)C1CCN(S(=O)(=O)c2cc(C(=O)N3CCCCCC3)cs2)CC1 |
| 771 s | CC1=C(c2cccc(Cl)c2)S(=O)(=O)N=C1N1CCC(NC(=O)C2CCCO2)CC1 (stereo not drawn) |
| 1040 s | O=C(C1=CN(c2ccc(F)c(F)c2)c2ccccc2S1(=O)=O)N1CCCCC1 |
